Results taken from patent US8465736B2, “Glutadon” (priority 2006, dated 2013).
Entries after “also recorded” stand apart in the source; their conditions may differ.

Assays:
[1] = GlutaDON study: side effects (nausea and vomiting); type: in vivo, human; details: DON up to 185 mg/m^2 in combination with PEG-PGA 120 IU/m^2 twice a week
Experimental: In a phase I/IIa clinical study (GlutaDON®), altogether 58 patients with advanced carcinomas were treated with the combination of the two active ingredients described herein. The patients received PEG-PGA in a dosage of 120 IU/m^2 twice a week by the intravenous route, the infusion lasting 15 minutes. The administration of PEG-PGA was followed after 2-4 hours by the intravenous application of DON in a concentration of 5-185 mg/m^2. The duration of the infusion was again 15 minutes.

[2] = system: advanced carcinomas; test: Phase I/IIa clinical study (GlutaDON): stabilization/progression by RECIST criteria; type: in vivo, human; details: for Progression (share of patients) / Stabilization (share of patients): Total
Experimental: In a phase I/IIa clinical study (GlutaDON®), altogether 58 patients with advanced carcinomas were treated with the combination of the two active ingredients described herein. The patients received PEG-PGA in a dosage of 120 IU/m^2 twice a week by the intravenous route, the infusion lasting 15 minutes. The administration of PEG-PGA was followed after 2-4 hours by the intravenous application of DON in a concentration of 5-185 mg/m^2. The duration of the infusion was again 15 minutes. […] According to the internationally accepted RECIST criteria, the term “stabilization” means that the increase in the measurable tumor diameters was less than 20% six weeks or more after the screening, i.e. after the staging of the tumor before the first treatment. According to the internationally accepted RECIST criteria, the term “progression” means that a growth of more than 20%, or a subjective progression, or new lesions were observed within six weeks.

[3] = dosages of up to 600 mg/m^2 twice a week; cited from earlier work
[4] = Colon, high DON dosage 105-185 mg/m^2, with PEG-PGA 120 IU/m^2
[5] = Colon, low DON dosage 5-80 mg/m^2, with PEG-PGA 120 IU/m^2
[6] = Kidney, high DON dosage 105-185 mg/m^2 i.v., after PEG-PGA 120 IU/m^2 twice a week
[7] = Kidney, low DON dosage 5-80 mg/m^2 i.v., after PEG-PGA 120 IU/m^2 twice a week
[8] = Other indications, high DON dosage 105-185 mg/m^2, with PEG-PGA 120 IU/m^2
[9] = Other indications, low DON dosage 5-80 mg/m^2, with PEG-PGA 120 IU/m^2
[10] = Ovary, high DON dosage 105-185 mg/m^2, with PEG-PGA 120 IU/m^2
[11] = Ovary, low DON dosage 5-80 mg/m^2, with PEG-PGA 120 IU/m^2
[12] = Prostate, high DON dosage 105-185 mg/m^2, with PEG-PGA 120 IU/m^2
[13] = Prostate, low DON dosage 5-80 mg/m^2, with PEG-PGA 120 IU/m^2
[14] = Total (10 patients), high DON dosage 105-185 mg/m^2, with PEG-PGA 120 IU/m^2
[15] = Total (36 patients), low DON dosage 5-80 mg/m^2, with PEG-PGA 120 IU/m^2
[16] = high DON dosage 105-185 mg/m^2, with PEG-PGA 120 IU/m^2
[17] = low DON dosage 5-80 mg/m^2, with PEG-PGA 120 IU/m^2

## [N-]=[N+]=CC(=O)CC[C@H](N)C(=O)O [DON, 6-diazo-5-oxo-L-norleucine]
[1]
  Nausea and vomiting as dose-limiting side effects: without nausea and vomiting being found to be dosage-limiting side effects; also recorded: not dose-limiting
[2]; [4]
  Progression (number of patients): 1 patients
  Stabilization (number of patients): 0 patients
[2]; [5]
  Progression (number of patients): 4 patients
  Stabilization (number of patients): 2 patients
[2]; [6]
  Progression (number of patients): 0 patients
  Stabilization (number of patients): 4 patients
[2]; [7]
  Progression (number of patients): 4 patients
  Stabilization (number of patients): 5 patients
[2]; [8]
  Progression (number of patients): 1 patients
  Stabilization (number of patients): 0 patients
[2]; [9]
  Progression (number of patients): 10 patients
  Stabilization (number of patients): 4 patients
[2]; [10]
  Progression (number of patients): 0 patients
  Stabilization (number of patients): 1 patients
[2]; [11]
  Progression (number of patients): 4 patients
  Stabilization (number of patients): 1 patients
[2]; [12]
  Progression (number of patients): 1 patients
  Stabilization (number of patients): 2 patients
[2]; [13]
  Progression (number of patients): 1 patients
  Stabilization (number of patients): 1 patients
[2]; [14]
  Progression (number of patients): 3 patients
  Stabilization (number of patients): 7 patients
[2]; [15]
  Progression (number of patients): 23 patients
  Stabilization (number of patients): 13 patients
[2]; [16]
  Progression (share of patients): 30%
  Stabilization (share of patients): 70%
[2]; [17]
  Progression (share of patients): 64%
  Stabilization (share of patients): 36%
[3]
  Action of DON used by itself: very modest action
  Nausea and vomiting with DON used by itself: dosage-limiting side effects
